US9603860B2, “Pharmaceutical compositions comprising active drugs, contraceptive kits comprising active drugs, and methods of administering the same” (LABORATORIOS LEON FARMA SA, priority 2010, dated 2017)

Assays:
[1] = Particle size distribution by laser diffraction in wet dispersion; assay type: physicochemical; conditions: dispersant water
Procedure: The analysis of the particle size distribution of each batch was performed by laser diffraction method in wet dispersion (Helos sensor, Sympatec with the wet disperser Quixel). The dispersant used was water. The full particle dispersion was ensured by ultrasonication.

[2] = Specific area by BET method; assay type: physicochemical
Procedure: The specific area was determined by the BET method.

ovulation = experiment: Contraceptive efficiency trial, 24/4 regimen (ovulation inhibition, Example 5, Part 3); assay type: in vivo, human
Procedure: The study was an open-label monocentric trial. […] Excluded were subjects with a (suspected) pregnancy, active or past thromboembolic disorder, present or past severe hepatic disease, carcinoma of the endometrium or other known or suspected estrogen-dependent neoplasia, undiagnosed vaginal bleeding, use of liver enzyme-inducing drugs and other drugs.
The subjects received daily treatment with tablets containing about 4 mg DRSP with a 24/4 regimen during two treatment cycles. The subjects started treatment on the 1st day of the cycle (i.e., the first day of onset of vaginal bleeding) following the screening visit. […]
Blood sampling for hormonal determination (progesterone, 17-beta-estradiol, FSH and LH) was performed every 3 days from day 1 to day 84 and assessments of weight, blood pressure and heart rate were performed at each visit. Serum progesterone, 17-beta-estradiol, FSH and LH concentrations were measured with validated commercial in vitro diagnostic kits (V1DAS, ELFA Biomerieux). […]
The occurrence of ovulation during treatment was determined on the basis of serum progesterone concentration, using the criteria of Landgren et al. Thus, an ovulation was judged to have occurred in case of progesterone concentrations >5.04 ng/ml-sustained for at least 2 consecutive progesterone samples.

| Compound | d10 [1] [μm] | d50 [1] [μm] | d90 [1] [μm] | d99 [1] [μm] | Specific area [2] [m^2/g] | ovulation during the 2 treatment cycles (ovulation; 24/4 regimen, ovulation = progesterone >5.04 ng/ml in 2 consecutive samples) | women with progesterone above 5.04 ng/mL (return of ovulation) in 28-day follow-up cycle (ovulation; upon cessation of treatment) |
| --- | --- | --- | --- | --- | --- | --- | --- |
| C[C@]12CCC(=O)C=C1[C@@H]1C[C@@H]1[C@H]1[C@@H]3[C@@H]4C[C@@H]4[C@@]4(CCC(=O)O4)[C@@]3(C)CC[C@@H]12 [compound 080053, Drospirenone] | 7.2 | 19.8 | 34.2 | 44.8 | 0.63 |  |  |
| C[C@]12CCC(=O)C=C1[C@@H]1C[C@@H]1[C@H]1[C@@H]3[C@@H]4C[C@@H]4[C@@]4(CCC(=O)O4)[C@@]3(C)CC[C@@H]12 [PR100003, Drospirenone] | 5.9 | 22.4 | 37.4 | 56.1 | 0.26 |  |  |
| C[C@]12CCC(=O)C=C1[C@@H]1C[C@@H]1[C@H]1[C@@H]3[C@@H]4C[C@@H]4[C@@]4(CCC(=O)O4)[C@@]3(C)CC[C@@H]12 [compound 080169, Drospirenone] | 2.9 | 24.5 | 37.1 | 48.9 | 0.45 |  |  |
| C[C@]12CCC(=O)C=C1[C@@H]1C[C@@H]1[C@H]1[C@@H]3[C@@H]4C[C@@H]4[C@@]4(CCC(=O)O4)[C@@]3(C)CC[C@@H]12 [DRSP, 6b,7b:15b,16b-Dimethylen-3-oxo-17a-pregn-4-ene-21,17-carbolactone] |  |  |  |  |  | no ovulation occurred | 17 out of 20 |
| C[C@]12CCC(=O)C=C1[C@@H]1C[C@@H]1[C@H]1[C@@H]3[C@@H]4C[C@@H]4[C@@]4(CCC(=O)O4)[C@@]3(C)CC[C@@H]12 [compound 080204, Drospirenone] | 4.4 | 13.1 | 24.8 | 34.5 | 0.83 |  |  |
| C[C@]12CCC(=O)C=C1[C@@H]1C[C@@H]1[C@H]1[C@@H]3[C@@H]4C[C@@H]4[C@@]4(CCC(=O)O4)[C@@]3(C)CC[C@@H]12 [compound 080257, Drospirenone] | 5.3 | 12.6 | 23.4 | 35.3 | 0.77 |  |  |
| C[C@]12CCC(=O)C=C1[C@@H]1C[C@@H]1[C@H]1[C@@H]3[C@@H]4C[C@@H]4[C@@]4(CCC(=O)O4)[C@@]3(C)CC[C@@H]12 [PR100311, Drospirenone] |  |  |  |  | 0.66 |  |  |
